Entries after “also recorded” stand apart in the source; their conditions may differ.
What was measured:
Format in all cases: in vivo, mouse
C57BL/6 normal mice = experiment: IOP measurement (applanation tonometer) after transscleral ciliary body PDT in C57BL/6 normal mice
Description: All experiments were performed in accordance with the Association for Research in Vision and Ophthalmology Statement for the Use of Animals in Ophthalmic and Vision Research. C57BL/6 female mice aged 3 months (n=20) were used as the normal model. DBA/2J female mice aged 8 months (n=20) were used as the glaucoma mouse model. One eye of each animal was treated and the other eye served as a control (for both the normal and glaucoma models). Animals were housed in covered cages, were fed with a standard rodent diet ad libitum and were kept under constant 12 hour light-12 hour dark cycles. For general anesthesia, a mixture of ketamine (100 mg/kg) and xylazine (9 mg/kg) was administered intraperitoneally.
Verteporfin photosensitizer (Novartis Ophthalmics, Inc., Duluth, Ga.) was used in these experiments. The mice were systemically anesthetized prior to PDT, and the photosensitizer dye was administered to the animals by tail vain injections using a 30 G needle 5 minutes before laser irradiation. A dose of 2.0 or 4.0 mg/kg was used in C57BL/6 normal mice and of 1.0 mg/kg was used in DBA/2J mice. The laser irradiation to the ciliary body was applied transsclerally using a 600 μm optical fiber at a wavelength of light of 689 nm from a Diode Laser, with an irradiance of 1800 mW/cm^2 and a fluence of 100 J/cm^2 (Lumenis, Santa Clara, Calif.). […] In the C57BL/6 and DBA/2J mice, 16 and 8 spots, respectively, were irradiated to overlap with one another. In the eyes prepared for lectin labeling and terminal deoxynucleotide transferase-mediated nick end labeling (TUNEL) staining (a measure of apoptosis), PDT was performed in C57BL/6 mice to cover 180 degrees of the ciliary body at a 4.0 mg/kg verteporfin dose to compare the degree of staining between irradiated area and non-irradiated area. Retreatment was performed in C57BL/6 normal mice which had been treated with 2.0 mg/kg of verteporfin after the IOP measurement at post-PDT day 7 using the same light parameters.
The IOP was measured using a previously reported applanation tonometer (Ahamed et al. (2003) IOVS 44:ARVO E-Abstract 3336) (n=12 in DBA/2J mice, n=5 in C57BL/6 mice at each dose). The principle of applanation tonometry employs fiber-optic gauges which are designed around a Fabry-Perot interferometer (FPI) (FTI-10; FISO Technologies, Inc., Quebec, Canada). FPI consists of two mirrors facing each other, the space separating the mirrors being called the cavity length. Light reflected in the FPI is wavelength-modulated in exact accordance with the cavity length. FPI gauges convert pressure into cavity length variations which correlate with IOP.
IOP was measured under general anesthesia. Standardization of the plane of anesthesia was obtained as described previously (John et al. (1997) INVEST. OPHTHALMOL. VIS. SCI. 38:249-53). Anesthesia was administered to one mouse at a time. […] Then anesthesia was injected in the next mouse.
As soon as the mice were anesthetized sufficiently, they were placed on a surgical platform. When the pressure sensor applanated a central area of mouse cornea under a dissecting microscope, the IOP (psi) was measured by the device 10 times automatically. The resulting pressures were converted into mmHg units by multiplying the obtained mean value by […]. The LOP was measured every 2 days in the first week, then twice a week until 4 weeks after PDT, and then once a week until 8 weeks after PDT.

ciliary body [1] = experiment: Histology (light and electron microscopy) of ciliary body after PDT in DBA/2J mice; conditions: 1.0 mg/kg
Description: (§1) Eyes were enucleated at 6 hours (only DBA/2J), at 1 and 7 days after treatment, and at the end of IOP follow up (8 weeks after treatment)(n=2 in each group at each time point) and processed for light and transmission electron microscopic examination. The eyes were bisected behind the limbus, placed in modified Karnovsky's fixative at 4° C. overnight, and then transferred to 0.1 M cacodylate buffer at pH 7.4. Ciliary body specimens were observed by stereomicroscopy at 1 day after PDT for normal mice in the 4.0 mg/kg dose-treated group. Tissues were postfixed in aqueous 2% osmium tetroxide, stained en bloc with Uranyl Acetate, dehydrated in graded ethanols, and embedded in Epon. One-micrometer-thick sections were stained with 0.5% toluidine blue in borate buffer for light microscopy and examined using a photomicroscope (Leica Microsystems, Wetzlar, Germany). Thin sections were stained with aqueous uranyl acetate, and Sato's lead stain, and examined with a transmission electron microscope (CM 10; Phillips, Eindhoven, The Netherlands).

retinal ganglion cells = experiment: Retinal ganglion cell (RGC) count in DBA/2J mice, fluorochrome retrograde labeling
Description: Four weeks after the end of IOP follow up, RGC was counted in DBA/2J mice (11 months old) as described previously (Levkovitch-Verbin et al. (2000) INVEST. OPHTHALMOL. VIS. SCI. 41:4169-74, Danias et al. (2003) INVEST. OPHTHALMOL. VIS. SCI. 44:5151-62) with slight modification (n=4). After the mice were anesthetized, the skin over the cranium was incised, and the scalp was exposed. Holes approximately 2 mm in diameter were drilled in the skull 4 mm posterior to the bregma, 1 mm lateral to the midline on both sides of the midline raphe. The neurotracer dye fluorochrome (Fluoro-gold, Englewood, Colo.) (4% solution in saline) was directly applied (1 μL, at a rate of 0.5 μL/min) at a depth of 2 mm from the brain surface using a Hamilton syringe (Hamilton, Reno, Nev.). Skull openings then were sealed with antibiotic ointment. The overlying skin was sutured and antibiotic ointment applied externally.
Seven days after the application of fluorochrome, the eyes were enucleated. […] Cell counting was performed as previously described (Nakazawa et al. (2002) INVEST. OPHTHALMOL. VIS. SCI. 43:3319-26) under a fluorescence microscope (Leica Microsystems, Wetzlar, Germany) using a UV filter set. RGC densities were determined by counting the tracer-labeled RGCs in 12 distinct areas of 9.0×10^−2 mm^2 each (three areas per retinal quadrant at 1/6, 3/6 and 5/6 of the retinal radius). […]

ciliary body [2] = experiment: Histology (light and electron microscopy) of ciliary body after PDT in C57BL/6 normal mice
Description: as §1

With verteporfin the “reduction of mean IOP of treated eyes compared to the control eyes” value (from here on “reduction of mean IOP of treated eyes”) (C57BL/6 normal mice; 2 mg/kg i.v., 360 degrees, 3 days after treatment, p<0.01) was 41.3%, the “reduction of mean IOP of treated eyes” value (C57BL/6 normal mice; 2 mg/kg i.v., 689 nm, 100 J/cm^2, 360 degrees, 1 day after treatment, p<0.05) was 35.1% and the “IOP reduction, preliminary experiments” value (C57BL/6 normal mice; 2.0 mg/kg, 180° of the ciliary body irradiated) was “significant IOP reduction was not obtained”. For the same substance, the “time by which mean IOP returned to the level of the fellow control eyes” value (C57BL/6 normal mice; 2.0 mg/kg, after first treatment) was at most 7 days, the “mean IOP of treated eyes” value (C57BL/6 normal mice; 2 mg/kg, retreatment at day 7, 10 days after first PDT) was 8.7±2.6 mmHg and the “mean IOP of treated eyes” value (C57BL/6 normal mice; 2 mg/kg, retreatment at day 7, 14 days after first PDT) was 9.5±2.1 mmHg. For the same substance, the “time by which mean IOP returned to the level of the control eyes” value (C57BL/6 normal mice; 2 mg/kg, with retreatment at day 7, days after PDT) was at most 17 days, the “mean IOP in treated eyes versus fellow control eyes” value (C57BL/6 normal mice; 2 mg/kg, with retreatment, 28 and 42 days after PDT) was “statistically lower than the level of fellow control eyes” and the “duration of significant reduction of mean IOP” value (C57BL/6 normal mice; 4 mg/kg) was 14 days. The “mean IOP of treated eyes” value (C57BL/6 normal mice; 4 mg/kg i.v., 360 degrees, 1 day after treatment, p<0.05) was 9.2±2.4 mmHg, the “time by which mean IOP returned to the level of the fellow control eyes” value (C57BL/6 normal mice; 4 mg/kg, after treatment) was at most 17 days and the “reduction of mean IOP of treated eyes” value (C57BL/6 normal mice; 4 mg/kg, 1 day after treatment) was 42.1%. The “reduction of mean IOP of treated eyes” value (C57BL/6 normal mice; 4 mg/kg, 5 days after treatment) was 47.3%, the “mean IOP of treated eyes (minimum)” value (C57BL/6 normal mice; 4 mg/kg, 5 days after treatment, p<0.01) was 7.2±1.9 mmHg and the “duration of significant reduction of mean IOP” value (C57BL/6 normal mice; treated normal mice eyes (2.0 and 4.0 mg/kg)) was 7 to 17 days. The “ciliary body histological findings” value (ciliary body [1]; 8 weeks after PDT) was “ciliary body blood vessels were recanalized, and edema had disappeared”, the “ciliary body histological findings” value (ciliary body [1]; 6 hours after PDT) was “most ciliary body blood vessels in the treated eyes were thrombosed” and the “ciliary body histological findings” value (ciliary body [1]; 1 day after PDT) was “most ciliary body blood vessels were still thrombosed, and the ciliary epithelium and stroma were severely damaged and edematous”. The “ciliary body histological findings” value (ciliary body [1]; 7 days after PDT) was “Some of ciliary body blood vessels were still thrombosed”, the “number of retinal ganglion cells in the treated eyes” value (retinal ganglion cells; 1.0 mg/kg PDT at 8 months, counted at 11 months of age) was 3905±627 /mm^2 and the “retinal ganglion cell survival, treated versus control eyes” value (retinal ganglion cells; 1.0 mg/kg PDT, 3 month period, p<0.05) was “significantly higher than control eyes; also recorded: loss of retinal ganglion cells over the 3 month period was significantly reduced”. For the same substance, the “ciliary body histological findings” value (ciliary body [2]; 2.0 mg/kg and 4.0 mg/kg, 7 days after PDT) was “ciliary body vessels had recanalized”, the “ciliary body histological findings” value (ciliary body [2]; 2.0 mg/kg, 1 day after PDT) was “Most ciliary body blood vessels in treated eyes appeared thrombosed and all capillaries were damaged” and the “ciliary body histological findings” value (ciliary body [2]; 4.0 mg/kg, 1 day after PDT) was “vascular injury, thrombosis with vacuolization of endothelial cells, extravasculum of leukocyte and erythrocytes and severe edema”.
